Measured values taken from US7105573B2, “Methods and compositions for the treatment of alopecia and other disorders of the pilosebaceous apparatus” (Orentreich Foundation for the Advancement of Science, Inc., priority 2000, dated 2006).
Where a name gives a salt, the structure may show the parent alone. Read-outs that look alike come from different tables or passages of the source.

How the values were obtained:
[1] = Skin irritation of metformin base and salts in 50% SDA / 2% butylene glycol vehicle; type: in vivo; conditions: applied in 50% SDA, 2% butylene glycol in water
[2] = Description: (§1) If more neutral solutions are required, a penetration enhancing agent should be used to help deliver the drug to the dermis. […] Some, like dimethylsulfoxide (DMSO), are applied to the skin for 10–15 minutes prior to administration of the drug, while others, such as myristylamine oxide (MAO), SEPA and N-methyl pyrrolidone (NMP), can be added to the inventive composition in the appropriate concentration before applying to the skin.
[3] = remark: listed apart in the source
Description: For production of the test materials described herein, it is dissolved in water to twice the desired final concentration, then mixed with an equal volume of a solution of 4% butylene glycol in special denatured alcohol (SDA) for a final concentration of 50% SDA and 2% butylene glycol. […] Preferred concentrations are about 0.8% to about 2.0%.
as §1
It is important to remove the salts that are produced during this process. Therefore, the mixture is lyophilized, and the dry powder reconstituted in absolute ethanol.

[4] = test system: skin of the hairless mouse; test: Skin redness in hairless mouse, 11 days of treatment; type: in vivo; conditions: 50 μL, 2× per day
[5] = test system: obese (ob/ob -Thieller background) mouse; conditions: 240 mg/kg/d in drinking water for 4 weeks; cited from earlier work
[6] = test system: alopecic female ob/ob mice; test: Topical biguanide / metformin hair growth in obese (ob/ob) mouse model (Example 3); type: in vivo
Description: When pharmaceutically acceptable salts of biguanide were applied in reasonable concentrations (e.g., about 0.5% to about 10%) in a suitable topical vehicle (e.g., solution, tincture, gel, lotion, cream or ointment) containing a suitable penetration enhancing agent (e.g., surfactant, DMSO, N-methyl pyrrolidone), the growth of hair was stimulated in the obese (ob/ob) mouse model.
Two alopecic female ob/ob mice were treated with 0.8% topical metformin for three months beginning at 13 months of age. Applications of 50 ul were made twice per day (except weekends) to the alopecic (intrascapular) site.

[7] = test system: hair loss in aged female obese (C57BL/6J-ob/ob) mice; test: Oral metformin and hair loss in aged female obese mice (Example 1); type: in vivo
Description: The objective of the experiments in this Example is to examine the effects of the biguanide […] metformin on hair loss in aged female obese (C57BL/6J-ob/ob) mice. The hypothesis tested is that metformin, when administered in these mice at a relatively young age, will increase insulin sensitivity, thereby preventing or slowing the progression of hair loss.
Animals: Female C57BL/6J Lep , ob/ob. (homozygous) and C57BL/6J Lep <ob/+> (heterozygous) mice are purchased from the Jackson Laboratory (Bar Harbor, Me.). All animals are housed at a density of 2–3 animals per cage and are maintained on a photoperiod of 12 h light: 12 h dark. Food and water are provided ad libitum.
The dosage is adjusted each week to reflect changes in body weight. Since the animals are group housed, the adjustment is made based on the mean weight of the treatment group, rather than on an animal-to-animal basis. The water is changed twice per week. Periodically the concentration of the metformin in the drinking water is verified by HPLC.
Experimental groups: The ob/+ animals are not entered into the study until two weeks after the ob/ob mice. […] Thus, once the ob/+ are 7 weeks of age, they are entered in the study.
Parameters monitored: Body weight, food and water consumption are monitored twice per week. Blood samples are collected from the orbital sinus of unanesthesized mice at the baseline and on a monthly basis for the duration of the study. These blood collections are designed to monitor serum glucose and insulin levels. C-peptide and insulin-like growth factor 1 (IGF-1) are also monitored periodically throughout the study. Blood samples for C-peptide analysis are collected following an overnight fast. Selected animals are photographed throughout the study to document the slowing or progression of hair loss.

[8] = test system: age-dependent hair loss in female ob/ob (obese) mice; test: Oral metformin hydrochloride and age-dependent hair loss in female ob/ob mice (Example 5); type: in vivo
Text: Twenty-one female C57BL/6J ob/ob mice were purchased from the Jackson Laboratory (Bar Harbour, Me.) at five weeks of age. […] Dosages were adjusted on a weekly basis to reflect changes observed in body weight. All animals were group housed and were allowed access to standard laboratory chow and water ad libitum. The progression of hair loss was documented throughout the study.

[9] = test system: hair loss in C57BL/6J Lep (ob) female mice; test: Oral troglitazone ob/ob female mice study (Example 6); type: in vivo; conditions: 350 days; 0.2% troglitazone in diet; control 100%
Description: This study involved oral administration of troglitazone (Rezulin®) to C57BL/6J Lep (ob) female mice.
Non-alopecic female ob/ob mice (7 weeks at start of study) are maintained on a photoperiod of 12 h light:12 h dark. Food (Purina 5001 Meal diet or Purina 5001 with 0.2% troglitazone) and water (acidified pH 2.5) are provided ad libitum.
Troglitazone (Rezulin®) is purchased from Parke-Davis (Morris Plains, NJ) in tablet form. The entire tablet (including the coat) is crushed in a blender prior to being incorporated into the diet. The amount of troglitazone added to the diet is adjusted to account for the weight of the tablet and the actual amount of the drug (400 mg/tablet) incorporated into the tablet.
The progression of hair loss is monitored by the investigator on a weekly to biweekly basis. The dorsal hair coat is photographed on a monthly basis to chart the onset and/or progression of alopecia.

In the case of `CN(C)C(=N)N=C(N)N.O=C(O)c1cc2ccccc2c(Cc2c(O)c(C(=O)O)cc3ccccc23)c1O` [Metformin pamoate, metformin pamoate], the “irritation to the skin” value [1] is reported as “no irritation”, the absorbed through skin [2] is reported as under 1% and the “penetration on addition of SR-38 to the formula” value [2] is reported as “similarly improved”.
With `N=C(N)NC(=N)N` [Biguanide, Biguanide (NH2C(═NH)NHC(═NH)NH2)] the “long-term chemical stability in water” value [3] was “limited long-term chemical stability in water” and the “solubility in water” value [3] was “water soluble”.
For `CCCCCCCCCCC1COC(=O)N1` (stereo not shown) [SR-38, 4-decyloxazolidin-2-one], the “redness on the skin” value [4] was “only mild, temporary redness”.
For `CN(C)C(=N)N=C(N)N` [metformin], the “concentration of hepatocyte high and low affinity insulin receptors” value [5] is given as “increase”, the “hypoglycemic response to exogenous insulin” value [5] is given as “did not alter” and the plasma insulin levels [5] is given as “lowered”. For the same compound, the “pigmentation at the alopecic site (onset of anagen)” value ([6]; 0.8% topical, 50 ul twice per day, after two months of treatment, two alopecic female ob/ob mice, 13 months of age at start) was “presence of pigmentation at the alopecic site”, the “emergence of new hairs at the alopecic site” value ([6]; 0.8% topical, the week following two months of treatment) was “small hairs emerging from the skin” and the “persistence of new hairs after withdrawal of treatment” value ([6]; observed for 6 weeks after the three-month treatment) was “new hairs remained intact”. For the same compound, the “onset of hair loss” value ([7]; female ob/ob mice, 240 mg/kg/d in drinking water) was “delayed”, the “hair loss in ob/+ mice” value ([7]; ob/+ (heterozygous) mice, 240 mg/kg p.o.) was “not observed” and the “hair loss observed (% of animals affected)” value ([7]; ob/ob mice at 10 months of age (nearly 8 months of treatment), 240 mg/kg p.o., control 36%) was 8%. The “penetration of the applied metformin dose” value [2] was “up to 20%” and the “share of composition passing through the dermis” value [2] was “over 90%”.
With `CN(C)C(=N)N=C(N)N` [Metformin HCl, Metformin hydrochloride] the “irritation to the skin” value [1] was “no irritation”, the “penetration to the dermis as a function of pH” value [2] was “improves as pH increases” and the absorbed through skin ([2]; 6 h) was under 1%. For the same compound, the “percutaneous absorption (absorbed)” value ([2]; 6 h) was under 1%, the “incidence of hair loss” value ([8]; 300 days of age, controls about 40%) was “about 20%” and the “incidence of hair loss” value ([8]; 370 days of age, excluding animals with only possible thinning of the hair coat, controls greater than 60%) was 30%. For the same compound, the “onset of hair loss” value ([8]; female ob/ob mice, 240 mg/kg/d in acid water) was “delayed” and the “incidence of spontaneous skin condition (may resemble acanthosis nigricans or migratory ichthyosis)” value ([8]; relative to control animals, the majority of which were affected) was “markedly less incidence”.
In the case of `CN(C)C(=N)NC(=N)N` [Metformin base], the “irritation to the skin” value [1] is reported as “significant irritation” and the absorbed through skin [2] is reported as 75%–88%.
With `Cc1c(C)c2c(c(C)c1O)CCC(C)(COc1ccc(CC3SC(=O)NC3=O)cc1)O2` (stereo not shown) [troglitazone] the “animals exhibiting some degree of hair loss” value [9] was 60%.
